Measured values reported in ChEMBL document CHEMBL6134824, “LPS-enriched interaction drives spectrum conversion in antimicrobial peptides: Design and optimization of AA16 derivatives for targeting gram-negative bacteria” (Eur J Med Chem, 2025).
Activity calls are given as the source filed them. No cut-off for these calls is given here.

Assays:
[1] = test system: Pseudomonas aeruginosa; assay: Antibacterial activity against Pseudomonas aeruginosa TL 11001 incubated for 16 hrs under shaking condition by standard broth microdilution method; assay type: functional
[2] = test system: Cell membrane; assay: Induction of cytoplasmic membrane depolarization in Pseudomonas aeruginosa assessed as change in fluorescence intensity by DISC3-5 dye based fluorescence analysis; assay type: subcellular
[3] = test system: Escherichia coli; assay: Antibacterial activity against Escherichia coli DC 29755 incubated for 16 hrs under shaking condition by standard broth microdilution method; assay type: functional
[4] = test system: Escherichia coli; assay: Antibacterial activity against Escherichia coli NCTC 10418 incubated for 16 hrs under shaking condition by standard broth microdilution method; assay type: functional
[5] = test system: Klebsiella pneumoniae; assay: Antibacterial activity against Klebsiella pneumoniae FK 16298 incubated for 16 hrs under shaking condition by standard broth microdilution method; assay type: functional
[6] = Hemolytic activity at horse Erythrocyte assessed as hemolysis; assay type: toxicity, cell-based, Equus caballus; details: horse erythrocytes
[7] = test system: Escherichia coli; assay: Antibacterial activity against Escherichia coli ATCC 25922 incubated for 16 hrs under shaking condition by standard broth microdilution method; assay type: functional
[8] = test system: Cell membrane; assay: Induction of cytoplasmic membrane depolarization in […] assessed as change in fluorescence intensity by DISC3-5 dye based fluorescence analysis; assay type: subcellular
[9] = test system: Pseudomonas aeruginosa; assay: Antibacterial activity against Pseudomonas aeruginosa TL 11004 incubated for 16 hrs under shaking condition by standard broth microdilution method; assay type: functional
[10] = test system: Staphylococcus aureus; assay: Antibacterial activity against Staphylococcus aureus NCTC 10788 incubated for 16 hrs under shaking condition by standard broth microdilution method; assay type: functional
[11] = test system: Staphylococcus aureus; assay: Antibacterial activity against methicillin-resistant Staphylococcus aureus ATCC 43300 incubated for 16 hrs under shaking condition by standard broth microdilution method; assay type: functional
[12] = Hemolytic activity at mouse Red blood cell assessed as hemolysis; assay type: toxicity, cell-based; details: erythrocyte
[13] = test system: Lipopolysaccharide (LPS); assay: Disaggregation of FITC-labeled Escherichia coli LPS assessed as fluorescence intensity at 0.01 uM measured for 30 mins relative to control
[14] = test system: Lipid bilayer; assay: Disruption of membrane integrity in bacterial cell membrane mimic POPC/POPG LUVs assessed as calcein leakage measured for 30 mins by fluorescence based analysis
[15] = test system: Pseudomonas aeruginosa; assay: Antibacterial activity against Pseudomonas aeruginosa ATCC 27853 incubated for 16 hrs under shaking condition by standard broth microdilution method; assay type: functional
[16] = test system: Escherichia coli; assay: Antibacterial activity against Escherichia coli CMCC 44102 incubated for 16 hrs under shaking condition by standard broth microdilution method; assay type: functional
[17] = test system: Cell membrane; assay: Induction of outer membrane permeability in Pseudomonas aeruginosa assessed as fluorescence intensity by 1-N-Nphenylnaphthylamine fluorescent probe based analysis; assay type: subcellular
[18] = molecular target: Lipopolysaccharide (LPS); assay: Binding affinity to LPS (unknown origin) assessed as dissociation constant by MST analysis
[19] = test system: Cell membrane; assay: Induction of cell membrane depolarization in Pseudomonas aeruginosa assessed as fluorescence intensity by DISC3-5 dye based fluorescence analysis; assay type: subcellular
[20] = test system: Pseudomonas aeruginosa; assay: Antibacterial activity against Pseudomonas aeruginosa TL 11005 incubated for 16 hrs under shaking condition by standard broth microdilution method; assay type: functional
[21] = test system: Cell membrane; assay: Induction of cytoplasmic membrane depolarization in […] assessed as increase in fluorescence intensity by DISC3-5 dye based fluorescence analysis; assay type: subcellular
[22] = test system: Escherichia coli; assay: Antibacterial activity against Escherichia coli infected in skin wound infection ICR mouse model assessed as reduction in wound area at 20 ug measured after 7 days by photographic analysis; assay type: functional; design: scale not given: the % may be the effect or the level left; details: dose 20 µg; time 7 day
[23] = test system: Lipopolysaccharide (LPS); assay: Disaggregation of FITC-labeled Escherichia coli LPS assessed as change in fluorescence intensity at 0.01 to 100 uM measured for 30 mins; details: dose 0.01-100 µM
[24] = test system: Cell membrane; assay: Disruption of cell membrane integrity in Escherichia coli assessed as increase in red fluorescence intensity at 0.5 times MIC by STYO 9 and PI staining based confocal microscopy analysis; assay type: subcellular
[25] = test system: Cell membrane; assay: Induction of cytoplasmic membrane depolarization in Pseudomonas aeruginosa by DISC3-5 dye based fluorescence analysis; assay type: subcellular
[26] = test system: Lipopolysaccharide (LPS); assay: Disaggregation of FITC-labeled Escherichia coli LPS assessed as fluorescence intensity at 0.1 uM measured for 30 mins relative to control
[27] = test system: Escherichia coli; assay: Antibacterial activity against Escherichia coli infected in skin wound infection ICR mouse model assessed as reduction in wound area at 40 ug measured after 7 days by photographic analysis; assay type: functional; design: scale not given: the % may be the effect or the level left; details: dose 40 µg; time 7 day
[28] = test system: Escherichia coli; assay: Antibacterial activity against Escherichia coli infected in skin wound infection ICR mouse model assessed as wound scabbing at 40 ug measured after 3 days by photographic analysis; assay type: functional, organism-based; details: dose 40.0 µg, time 3.0 day
[29] = test system: Escherichia coli; assay: Antibacterial activity against Escherichia coli infected in skin wound infection ICR mouse model assessed as wound scabbing at 20 ug measured after 5 days by photographic analysis; assay type: functional, organism-based; details: dose 20.0 µg, time 5.0 day
[30] = test system: Lipopolysaccharide (LPS); assay: Disaggregation of FITC-labeled Escherichia coli LPS assessed as fluorescence intensity at 1 uM measured for 30 mins relative to control
[31] = test system: Lipopolysaccharide (LPS); assay: Binding affinity to LPS (unknown origin) at 4 microg/ml relative to control; details: dose 4.0 µg/ml
[32] = test system: Cell membrane; assay: Disruption of cell membrane integrity in Staphylococcus aureus assessed as increase in red fluorescence intensity at 0.5 times MIC by STYO 9 and PI staining based confocal microscopy analysis; assay type: subcellular
[33] = test system: Staphylococcus aureus; assay: Antibacterial activity against Staphylococcus aureus incubated for 60 mins in presence of LPS; assay type: functional, organism-based
[34] = test system: Lipopolysaccharide (LPS); assay: Disaggregation of FITC-labeled Escherichia coli LPS assessed as change in fluorescence intensity measured for 30 mins; details: dose 0.1-10 µM
[35] = test system: Cell membrane; assay: Disruption of cell membrane integrity in methicillin-resistant Staphylococcus aureus assessed as reduction in green to red fluorescence by STYO 9 and PI staining based confocal microscopy analysis; assay type: subcellular
[36] = test system: Cell membrane; assay: Disruption of cell membrane integrity in Staphylococcus aureus assessed as reduction in green to red fluorescence by STYO 9 and PI staining based confocal microscopy analysis; assay type: subcellular
[37] = test system: Staphylococcus aureus; assay: Antibacterial activity against Staphylococcus aureus incubated for 16 hrs under shaking condition in presence of LPS by standard broth microdilution method; assay type: functional, organism-based
[38] = test system: Cell membrane; assay: Induction of cytoplasmic membrane depolarization in Pseudomonas aeruginosa assessed as change in fluorescence intensity in protoplast by DISC3-5 dye based fluorescence analysis; assay type: subcellular

Substance | MIC [1] | Activity [2] | MIC [3] | MIC [4] | MIC [5] | HC50 [6] | MIC [7] | Activity [8] | MIC [9] | MIC [10] | MIC [11] | MHC [12] | Activity [14] | MIC [15] | MIC [16] | Flu intensity [17] | Kd [18] | Flu intensity [19] | MIC [20] | also measured
Ac-AARIPSRILFGALRVL-NH2 | 512 µg/mL | Active | 128 µg/mL | 64 µg/mL | 256 µg/mL | > 512 µg/mL | 128 µg/mL | Active | 512 µg/mL | 128 µg/mL | 128 µg/mL | > 512 µg/mL | 50.1% | 256 µg/mL | 128 µg/mL | 10000 | 39.1 µM | 676 | 128 µg/mL | Flu intensity [13]: -95
Ac-AARIPSRILFRALRVL-NH2 |  |  |  | 32 µg/mL |  | > 512 µg/mL |  |  |  | 32 µg/mL | 16 µg/mL | > 512 µg/mL |  | 64 µg/mL |  |  |  |  |  | Activity [21]: Active
Ac-AARIPSRILKGALRVL-NH2 |  |  |  | 128 µg/mL |  | > 512 µg/mL |  |  |  | 512 µg/mL | 256 µg/mL | > 512 µg/mL |  | 64 µg/mL |  |  |  |  |  | 
Ac-AARIPSRILRGALRVL-NH2 | 512 µg/mL | Active | 64 µg/mL | 16 µg/mL | 128 µg/mL | > 512 µg/mL | 64 µg/mL | Active | 128 µg/mL | 256 µg/mL | 128 µg/mL | > 512 µg/mL | 10% | 32 µg/mL | 32 µg/mL | 30000 | 0.152 µM | 781 | 32 µg/mL | Activity [22]: 32.5%; Activity [23]: Active; Activity [24]: Active; Activity [25]: Active; Flu intensity [26]: 21.5; Activity [27]: 44.8%; Activity [28]: Active; Activity [29]: Active; Flu intensity [30]: 195; Activity [31]: > 90%; Activity [32]: Active; Activity [33]: Dose-dependent-effect; Activity [34]: Dose-dependent-effect; Activity [35]: Active; Activity [36]: Active; Activity [37]: Active; Activity [38]: Active
